Measured values taken from publication PMC9471048, “The signaling and selectivity of α‐adrenoceptor agonists for the human α2A, α2B and α2C‐adrenoceptors and comparison with human α1 and β‐adrenoceptors” (Pharmacology Research & Perspectives, 2022).
Where two headings read alike, the source gives them in different places.

Key:
human α2A‐adrenoceptor [1] = molecular target: T1, human α2A‐adrenoceptor (Homo sapiens, UniProt P08913); assay: ERK1/2‐phosphorylation in CHO‐α2A cells; assay type: cell-based; set-up: expressed in transfected cells; host or cells: CHO-K1 with CRE-SPAP reporter
T1 sequence (P08913 1-465): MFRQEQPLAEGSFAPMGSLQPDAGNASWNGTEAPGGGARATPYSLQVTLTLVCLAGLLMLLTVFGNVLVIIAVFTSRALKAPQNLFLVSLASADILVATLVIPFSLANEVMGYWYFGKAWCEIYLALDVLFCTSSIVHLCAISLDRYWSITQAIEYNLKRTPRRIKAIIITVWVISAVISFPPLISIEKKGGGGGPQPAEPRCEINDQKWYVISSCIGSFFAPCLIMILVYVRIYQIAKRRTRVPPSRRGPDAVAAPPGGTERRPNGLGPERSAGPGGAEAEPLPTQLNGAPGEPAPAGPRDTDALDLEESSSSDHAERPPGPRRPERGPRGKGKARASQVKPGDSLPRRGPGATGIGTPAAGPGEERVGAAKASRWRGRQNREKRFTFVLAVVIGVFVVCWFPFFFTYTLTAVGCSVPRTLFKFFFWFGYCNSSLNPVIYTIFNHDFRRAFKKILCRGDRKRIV

human α2A‐adrenoceptor [2] = molecular target: T1, human α2A‐adrenoceptor; assay: 3H‐rauwolscine whole cell binding in CHO‐α2A cells; set-up: expressed in transfected cells; host or cells: CHO-K1 with CRE-SPAP reporter
human α2A‐adrenoceptor [3] = molecular target: T1, human α2A‐adrenoceptor; conditions: for % inhibition, CRE‐SPAP (with forskolin): % inhibition from the 3 μM forskolin control, inhibition only; for Log efficacy ratio (KD/IC50): CHO‐α2A, binding KD / Gi IC50 of CRE‐SPAP
human α2C‐adrenoceptor [4] = molecular target: T2, human α2C‐adrenoceptor (Homo sapiens, UniProt P18825); assay: ERK1/2‐phosphorylation in CHO‐α2C cells; assay type: cell-based; set-up: expressed in transfected cells; host or cells: CHO-K1 with CRE-SPAP reporter
T2 sequence (P18825 1-462): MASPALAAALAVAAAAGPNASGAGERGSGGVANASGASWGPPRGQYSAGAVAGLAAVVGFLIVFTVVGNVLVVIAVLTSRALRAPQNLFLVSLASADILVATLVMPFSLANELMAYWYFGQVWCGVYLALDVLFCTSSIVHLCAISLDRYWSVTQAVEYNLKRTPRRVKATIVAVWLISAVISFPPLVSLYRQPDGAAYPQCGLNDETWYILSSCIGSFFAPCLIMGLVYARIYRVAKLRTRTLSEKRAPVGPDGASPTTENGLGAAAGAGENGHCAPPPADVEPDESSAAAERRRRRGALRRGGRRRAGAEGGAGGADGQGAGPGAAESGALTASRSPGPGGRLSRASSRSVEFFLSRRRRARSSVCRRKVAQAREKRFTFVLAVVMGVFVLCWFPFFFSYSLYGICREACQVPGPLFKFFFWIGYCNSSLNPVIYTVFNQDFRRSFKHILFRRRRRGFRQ

human α2C‐adrenoceptor [5] = molecular target: T2, human α2C‐adrenoceptor; conditions: for Log efficacy ratio (KD/IC50): log KD from 3H‐rauwolscine binding versus CRE‐SPAP log IC50
human α2C‐adrenoceptor [6] = molecular target: T2, human α2C‐adrenoceptor; assay: 3H‐rauwolscine whole cell binding in CHO‐α2C cells; set-up: expressed in transfected cells; host or cells: CHO-K1 with CRE-SPAP reporter
[7] = CHO‐α2A, maximum response compared to 10 μM PDBu
[8] = CHO‐α2A, read-out: Log EC50, ERK1/2‐phosphorylation (converted)
[9] = CHO‐α2A, 3H‐rauwolscine whole cell binding, given as negative log KD, read-out: Log KD (binding) (converted)
[10] = fold, from KD values, 1 = no selectivity
[11] = CHO‐α2A (cell line 1), absence of forskolin
[12] = CHO‐α2C cells, maximum response compared to 10 μM PDBu, mean ± SEM
[13] = CHO‐α2C cells, given as negative log EC50, mean ± SEM, read-out: Log EC50, ERK1/2‐phosphorylation (converted)
[14] = CHO‐α2C cells, % inhibition from the 3 μM forskolin control, mean ± SEM
[15] = CHO‐α2C cells, CRE‐SPAP production in the absence of forskolin
[16] = Log IC50 (Gi), CRE‐SPAP (with forskolin), CHO‐α2C cells, inhibition of 3 μM forskolin‐stimulated CRE‐SPAP production, given as negative log IC50, mean ± SEM
[17] = 3H‐rauwolscine whole cell binding, living cells, negative log KD, mean ± SEM, read-out: Log KD, CHO‐α2C (converted)
[18] = CHO‐α2C cells, 3H‐rauwolscine whole cell binding, given as negative log KD, mean only (SEM in Table 4), read-out: Log KD (converted)
[19] = read-out: Log EC50, ERK1/2‐phosphorylation (converted)
[20] = Log IC50 (Gi), CRE‐SPAP (with forskolin)
[21] = read-out: Log KD, CHO‐α2C (converted)
[22] = read-out: Log KD (binding) (converted)
[23] = read-out: Log KD, CHO‐α2A (converted)

SMILES | % 10 μM PDBu, ERK1/2‐phosphorylation (human α2A‐adrenoceptor [1]; [7]) [%] | EC50 (human α2A‐adrenoceptor [1]; [8]) [µM] | Selectivity ratio α2A vs α2B (higher affinity for α2A) (human α2A‐adrenoceptor [2]; [10]) | % inhibition, CRE‐SPAP (with forskolin) (human α2A‐adrenoceptor [3]; CHO‐α2A (cell line 1)) [%] | Log EC50 (Gs), CRE‐SPAP (without forskolin) (human α2A‐adrenoceptor [3]; [11]) | Log efficacy ratio (KD/IC50) (human α2A‐adrenoceptor [3]) | % 10 μM PDBu, ERK1/2‐phosphorylation (human α2C‐adrenoceptor [4]; [12]) [%] | EC50 (human α2C‐adrenoceptor [4]; [13]) [µM] | % inhibition, CRE‐SPAP (with forskolin) (human α2C‐adrenoceptor [5]; [14]) [%] | Log EC50 (Gs), CRE‐SPAP (without forskolin) (human α2C‐adrenoceptor [5]; [15]) | Log efficacy ratio (KD/IC50) (human α2C‐adrenoceptor [5]; CHO‐α2C cells) | Kd (human α2C‐adrenoceptor [6]; [17]) [µM] | Kd (human α2C‐adrenoceptor [6]; [18]) [µM] | Selectivity ratio α2B vs α2C (higher affinity for α2C) (human α2C‐adrenoceptor [6]; [10]) | % 10 μM PDBu, ERK1/2‐phosphorylation (human α2A‐adrenoceptor [1]) [%] | % 10 μM PDBu, ERK1/2‐phosphorylation (human α2C‐adrenoceptor [4]) [%] | Log EC50 (Gs), CRE‐SPAP (without forskolin) (human α2C‐adrenoceptor [5]) | IC50 (human α2C‐adrenoceptor [5]) [µM] | other results
c1ccc(C2CC2)c(OCC2=NCCN2)c1 [Cirazoline] | 113.0 ± 14.3 | 0.158 | 16.2 | 43.6 ± 4.4 | No response | −0.16 | 139.1 ± 10.2 | 0.0832 | 74.2 ± 2.1 | No response | 0.41 | 0.851 | 0.851 | 7.9 | – | – | – | – | Kd (human α2A‐adrenoceptor [2]; 3H‐rauwolscine whole cell binding, living cells, negative log KD, mean ± SEM, read-out: Log KD, CHO‐α2A (converted)): 0.417 µM; Kd (human α2A‐adrenoceptor [2]; [9]): 0.417 µM; Selectivity ratio α2A vs α2C (higher affinity for α2A) (human α2A‐adrenoceptor [2]; [10]): 2.0; IC50 (human α2A‐adrenoceptor [3]): 0.603 µM; IC50 (human α2C‐adrenoceptor [5]; [16]): 0.331 µM
Cc1cccc([C@H](C)c2cnc[nH]2)c1C [Dexmedetomidine] | – | – | – | – | – | – | – | – | – | – | – | – | – | – | 138.5 ± 15.4 | 153.0 ± 18.5 | No response | – | higher affinity for α2 than α1‐adrenoceptor subtypes (human α2A‐adrenoceptor [2]): 100 fold; % 3 μM forskolin, CRE‐SPAP (without forskolin) (human α2A‐adrenoceptor [3]): 23.6 ± 2.7%; EC50 (human α2C‐adrenoceptor [4]; [19]): 0.000263 µM; % inhibition, CRE‐SPAP (with forskolin) (human α2C‐adrenoceptor [5]): 73.4 ± 4.4%; IC50 (human α2C‐adrenoceptor [5]; [20]): 0.000692 µM; Kd (human α2C‐adrenoceptor [6]; read-out: Log KD (converted)): 0.0302 µM; Kd (human α2C‐adrenoceptor [6]; [21]): 0.0302 µM
CC(CCc1ccc(O)cc1)NCCc1ccc(O)c(O)c1 (stereo not shown) [Dobutamine] | – | 2 | – | – | No response | – | – | 0.759 | – | No response | – | 5.5 | 5.5 | – | – | – | – | 20.9 | Kd (human α2A‐adrenoceptor [2]; [22]): 20.4 µM; Kd (human α2A‐adrenoceptor [2]; [23]): 20.4 µM; Log IC50 (Gi), CRE‐SPAP (with forskolin) (human α2A‐adrenoceptor [3]; CHO‐α2A (cell line 1, 5830 fmol/mg protein), 3 μM forskolin): No response
CN[C@@H](C)[C@H](O)c1ccccc1 [Ephedrine] | – | – | – | – | – | – | – | – | – | – | – | – | – | – | 123.1 ± 17.3 | 88.0 ± 12.5 | No response | – | EC50 (human α2A‐adrenoceptor [1]): 16.6 µM; Kd (human α2A‐adrenoceptor [2]): 34.7 µM; Selectivity ratio α2A vs α2B (higher affinity for α2A) (human α2A‐adrenoceptor [2]): 4.2; Selectivity ratio α2A vs α2C (higher affinity for α2A) (human α2A‐adrenoceptor [2]): 1.1; Kd (human α2A‐adrenoceptor [2]; Log KD, CHO‐α2A): 34.7 µM; Log EC50 (Gs), CRE‐SPAP (without forskolin) (human α2A‐adrenoceptor [3]): No response; Log IC50 (Gi), CRE‐SPAP (with forskolin) (human α2A‐adrenoceptor [3]): No response; EC50 (human α2C‐adrenoceptor [4]): 33.1 µM; Log IC50 (Gi), CRE‐SPAP (with forskolin) (human α2C‐adrenoceptor [5]): No response; Kd (human α2C‐adrenoceptor [6]): 39.8 µM; Selectivity ratio α2B vs α2C (higher affinity for α2C) (human α2C‐adrenoceptor [6]): 3.6; Kd (human α2C‐adrenoceptor [6]; Log KD, CHO‐α2C): 39.8 µM
CCNCC(O)c1cccc(O)c1 (stereo not shown) [Etilefrine] | 150.8 ± 10.2 | 3.24 | 2.1 | 101.3 ± 4.6 | No response | 0.61 | 182.2 ± 9.6 | 3.16 | 86.2 ± 7.2 | No response | 1.01 | – | 123 | 3.4 | – | – | – | – | Kd (human α2A‐adrenoceptor [2]; 3H‐rauwolscine whole cell binding, ^app: apparent KD, IC50 from extrapolated curve as not all specific binding was inhibited, read-out: Log KD (apparent), CHO‐α2A (converted)): 195 µM; Kd (human α2A‐adrenoceptor [2]; [9]): 195 µM; IC50 (human α2A‐adrenoceptor [3]; Log IC50 (Gi), CRE‐SPAP (with forskolin), CHO‐α2A (cell line 1, 5830 fmol/mg protein), 3 μM forskolin): 47.9 µM; IC50 (human α2C‐adrenoceptor [5]; [16]): 12 µM; Kd (human α2C‐adrenoceptor [6]; 3H‐rauwolscine whole cell binding, ^app: apparent KD, IC50 from extrapolated curve as not all specific binding was inhibited, read-out: Log KD (apparent), CHO‐α2C (converted)): 123 µM; Selectivity ratio α2A vs α2C (higher affinity for α2C) (human α2C‐adrenoceptor [6]; [10]): 1.6
Cc1cccc(C(C)c2cnc[nH]2)c1C (stereo not shown) [Medetomidine] | – | – | – | – | – | – | – | – | – | – | – | – | – | – | 114.1 ± 9.3 | 159.3 ± 16.4 | No response | – | % 3 μM forskolin, CRE‐SPAP (without forskolin) (human α2A‐adrenoceptor [3]): 23.1 ± 4.7%; EC50 (human α2C‐adrenoceptor [4]; [19]): 0.000195 µM; % inhibition, CRE‐SPAP (with forskolin) (human α2C‐adrenoceptor [5]): 86.4 ± 2.1%; IC50 (human α2C‐adrenoceptor [5]; [20]): 0.000513 µM; Kd (human α2C‐adrenoceptor [6]; read-out: Log KD (converted)): 0.0324 µM; Kd (human α2C‐adrenoceptor [6]; [21]): 0.0324 µM
C[C@H](N)[C@H](O)c1cccc(O)c1 [Metaraminol] | 136.4 ± 13.9 | 0.24 | 1.5 | 87.0 ± 1.3 | No response | 1.22 | 158.8 ± 22.2 | 0.158 | 85.5 ± 1.8 | No response | 1.56 | 28.8 | 28.8 | 2.7 | – | – | – | 0.794 | Kd (human α2A‐adrenoceptor [2]; [22]): 52.5 µM; Kd (human α2A‐adrenoceptor [2]; [23]): 52.5 µM; IC50 (human α2A‐adrenoceptor [3]): 3.16 µM; Selectivity ratio α2A vs α2C (higher affinity for α2C) (human α2C‐adrenoceptor [6]; [10]): 1.8
NC[C@H](O)c1ccc(O)c(O)c1 [Noradrenaline] | 121.9 ± 6.3 | – | – | – | – | – | 142.3 ± 10.7 | – | 83.0 ± 3.1 | No response | – | 32.4 | 32.4 | – | – | – | – | 0.309 | % 3 μM forskolin, CRE‐SPAP (without forskolin) (human α2A‐adrenoceptor [3]; CHO‐α2A (cell line 1), maximum response compared to 3 μM forskolin): 171.5 ± 11.1%
